Assays:
[1] = inhibition of intestinal motility in mice; settings: mouse, in vivo, po, read-out: intestinal motility inhibiting ED50
rhesus monkey [2] = experiment: step-irritation test in the rhesus monkey; assay type: in vivo
bradykinin induced pain = bradykinin induced pain test in rats (s.c.); assay type: in vivo, rat
Experimental: For example, the MED of both, the test substance 32-527 and morphine, is 0,56 mg/kg in the so-called step-irritation test in the rhesus monkey upon s.c. administration. Upon s.c. administration, the ED50 of the two substances for inhibiting the bradykinin induced pain in rats are as follows: […]

[3] = test system: mice, rats and rhesus monkeys; experiment: analgesic activity in mice, rats and rhesus monkeys; assay type: in vivo
acute toxicity = assay type: in vivo; settings: compared with propoxyphene or profadol
rhesus monkey [4] = experiment: self-administration test (addiction) in the rhesus monkey; assay type: in vivo; settings: contrary to morphine
Experimental: test substance No. 32-527 < 5,6 mg/kg and morphine 3,6 mg/kg.

| SMILES | ED50 [1] | minimal effective dose (rhesus monkey [2]; Macaca mulatta, sc, read-out: MED) | ED50 for inhibiting the bradykinin induced pain (bradykinin induced pain) | analgesic activity compared with morphine ([3]; enteral and parenteral) | analgesic activity ([3]; enteral and parenteral administration) | MED (rhesus monkey [2]; step-irritation test, rhesus monkey, s.c.) | acute toxicity (acute toxicity) | addiction syndroms in the self-administration test (rhesus monkey [4]) |
| --- | --- | --- | --- | --- | --- | --- | --- | --- |
| CN1CC[C@]23c4c5ccc(O)c4O[C@H]2[C@@H](O)C=C[C@H]3[C@H]1C5 [morphine, reference compound] | 39 mg/kg | 0.56 mg/kg | 3,6 mg/kg | – | – | – | – | – |
| COC1OC2OC3(C)C(NCCc4ccccc4Cl)CC(C2C)C13.Cl (stereo not drawn) [test substance No. 32-527, 4 α-(o-chlorophenethylamino)-3,10-dimethyl-8-methoxy-2,9-dioxatricyclo[4,3,1,0^3,7]decane hydrochloride] | – | – | < 5,6 mg/kg | of about the same order as that of morphine | exhibits analgesic activities | 0,56 mg/kg | similarly low toxicity as that of propoxyphene or profadol | practically no addiction syndroms are observed |
